# Results from patent US20110105623A1 (Biogenic Innovations, LLC, priority 2009, published 2011).
# Several values for one entry are separate records, joined by “and”; a condition that tells them apart may be missing. Equal entries are not always repeated.
# What was measured:
# [1] = test system: Pseudomonas aeruginosa; test: USP AET, MSM in TSB; format: cell-based; set-up: key: Colonies too numerous to count (TNTC); settings: 48 hrs
# From the text: (§1) Compounds or formulated products having antimicrobial activity may be evaluated with the United States Pharmacopeia (USP) Antimicrobial Effectiveness Test (AET). The AET involves the addition of specified microorganisms (Candida albicans, Aspergillus niger, Escherichia coli, Pseudomonas aeruginosa and Staphylococcus aureus) directly to a test product at relatively high concentrations to simulate contamination. The product is held for one month, with weekly analysis of microorganism levels. Depending on the route of administration of a product, satisfaction of the AET generally requires a 1 to 3 log reduction in bacteria from initial levels, which should occur in one to two weeks, with no further increase in bacteria after two weeks. For yeast and mold, no increase from the initial inoculums level is permitted.
# (§2) Inoculations were made using Candida albicans, Aspergillus niger, Escherichia coli, Pseudomonas aeruginosa and Staphylococcus aureus. Tryptic soy broth (TSB) was used as the culturing media. […] The inoculated media was held for one month, during which time the added microorganisms were enumerated weekly to determine if they were growing, dying off, or remaining near the initial inoculation level. Data points were measured in triplicate at 48 hours, 3, 5, 14, 20, 28, and 30 days. The acceptance criteria for antimicrobial effectiveness are described in detail in the USP, herein incorporated by reference.
# [2] = test system: Escherichia coli; test: USP AET, MSM in TSB; format: cell-based; set-up: key: Colonies too numerous to count (TNTC); settings: 48 hrs
# From the text: as §1, §2
# [3] = test system: Lactobacillus acidophilus milk; test: Growth in simulated gastric acid supplemented with MSM; settings: for Log Growth of L. acidophilus in milk average / Log Growth of L. acidophilus in milk in duplicate: simulated gastric acid
substance,measurement,setting,value
Methylsulfonylmethane [MSM],AET microorganism count,[1]; 1:100 dilution of MSM,TNTC
same,AET microorganism count,[1]; 1:1000 dilution of MSM,TNTC
same,AET microorganism count,[2]; 1:100 dilution of MSM,TNTC
same,AET microorganism count,[2]; 1:1000 dilution of MSM,TNTC
same,Log Growth of L. acidophilus in milk average,"[3]; 5% MSM, 0 hours",0.41 logs
same,Log Growth of L. acidophilus in milk average,"[3]; 5% MSM, 3 hours",0.41 logs
same,Log Growth of L. acidophilus in milk average,"[3]; 5% MSM, 6 hours",0.91 logs
same,Log Growth of L. acidophilus in milk in duplicate,"[3]; 5% MSM, 6 hours",0.82 logs and 1 logs
same,Log Growth of L. acidophilus in milk average,"[3]; 5% MSM, 9 hours",0.52 logs
same,Log Growth of L. acidophilus in milk in duplicate,"[3]; 5% MSM, 9 hours",0.52 logs
same,Log Growth of L. acidophilus in milk average,"[3]; 5% MSM, 12 hours",1.10 logs
same,Log Growth of L. acidophilus in milk average,"[3]; 5% MSM, 15 hours",1.43 logs
same,Log Growth of L. acidophilus in milk in duplicate,"[3]; 5% MSM, 15 hours",1.43 logs
same,Log Growth of L. acidophilus in milk average,"[3]; 5% MSM, 24 hours",1.66 logs
same,Log Growth of L. acidophilus in milk in duplicate,"[3]; 5% MSM, 24 hours",1.67 logs and 1.64 logs
same,Log Growth of L. acidophilus in milk average,"[3]; 5% MSM, 48 hours",1.33 logs
same,Log Growth of L. acidophilus in milk in duplicate,"[3]; 5% MSM, 48 hours",1.22 logs and 1.43 logs
same,decrease in growth,"[3]; 5.0% MSM, Hour 48",0.33 logs
same,increase in growth,"[3]; 5.0% MSM, at 24 hours",0.23 logs
same,Log Growth of L. acidophilus in milk average,"[3]; […] MSM, 0 hours",0 logs
same,Log Growth of L. acidophilus in milk in duplicate,"[3]; […] MSM, 0 hours",0 logs
same,Log Growth of L. acidophilus in milk average,"[3]; […] MSM, 9 hours",0.41 logs
same,decrease in growth,"[3]; […] MSM, Hour 48",0.38 logs
same,decrease in growth,"[3]; […] MSM, at 24 hours",0.11 logs
same,increase in growth,"[3]; printed […] MSM, at 24 hours",0.30 logs
